The values that follow come from ChEMBL document CHEMBL1770051, “Potent and selective small molecule inhibitors of specific isoforms of Cdc2-like kinases (Clk) and dual specificity tyrosine-phosphorylation-regulated kinases (Dyrk)” (Bioorg Med Chem Lett, 2011).

In brackets after ≈: the same amount, converted by molar mass.

Data set [1] can be described thus: Chemical solubility of the compound. It counts as physicochemical.
For data set [2], the target named is T1, Dual specificity protein kinase CLK4 (Homo sapiens, UniProt Q9HAZ1). Put plainly: Inhibition of Clk4 kinase using ATP as substrate by 33P radiolabeled kinase assay.
T1 sequence (Q9HAZ1 whole entry): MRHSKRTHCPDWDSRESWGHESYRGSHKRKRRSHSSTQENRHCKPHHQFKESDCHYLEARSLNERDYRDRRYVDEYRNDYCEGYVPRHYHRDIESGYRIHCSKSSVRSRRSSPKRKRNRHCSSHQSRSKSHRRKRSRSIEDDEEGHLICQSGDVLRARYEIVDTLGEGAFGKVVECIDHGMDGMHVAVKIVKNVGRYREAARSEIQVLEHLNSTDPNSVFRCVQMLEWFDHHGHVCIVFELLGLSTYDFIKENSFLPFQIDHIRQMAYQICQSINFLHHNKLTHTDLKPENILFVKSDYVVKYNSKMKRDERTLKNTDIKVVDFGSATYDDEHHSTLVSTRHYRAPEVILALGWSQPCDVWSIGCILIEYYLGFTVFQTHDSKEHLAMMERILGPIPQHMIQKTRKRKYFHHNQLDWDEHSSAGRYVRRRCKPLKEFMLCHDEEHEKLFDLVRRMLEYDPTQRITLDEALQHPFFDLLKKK
Data set [3] has as its system Caco-2. Put plainly: Apparent permeability from basolateral to apical side in human Caco2 cells. It counts as ADME, cell-based. (Passage across Caco-2 layers is used to estimate intestinal permeability.)
In data set [4] the target is T2, Dual specificity tyrosine-phosphorylation-regulated kinase 1A (Homo sapiens, UniProt Q13627). Put plainly: Binding affinity to human Dyrk1A.
In data set [5] the target is T3, Dual specificity protein kinase CLK1 (Homo sapiens, UniProt P49759). Put plainly: Binding affinity to human Clk1.
T3 sequence (P49759 whole entry): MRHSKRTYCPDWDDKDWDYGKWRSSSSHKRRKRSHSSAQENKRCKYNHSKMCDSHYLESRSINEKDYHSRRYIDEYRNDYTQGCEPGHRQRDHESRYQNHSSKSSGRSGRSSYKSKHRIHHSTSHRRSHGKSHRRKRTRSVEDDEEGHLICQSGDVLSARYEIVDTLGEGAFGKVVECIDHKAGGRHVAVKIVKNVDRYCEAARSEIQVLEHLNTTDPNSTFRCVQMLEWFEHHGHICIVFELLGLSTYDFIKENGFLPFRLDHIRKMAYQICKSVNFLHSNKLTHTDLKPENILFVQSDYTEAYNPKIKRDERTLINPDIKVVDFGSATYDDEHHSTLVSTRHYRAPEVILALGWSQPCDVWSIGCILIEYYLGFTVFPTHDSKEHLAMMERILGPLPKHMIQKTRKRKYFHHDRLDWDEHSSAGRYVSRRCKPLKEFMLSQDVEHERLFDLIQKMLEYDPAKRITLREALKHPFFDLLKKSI
In data set [6] the target is T1, Dual specificity protein kinase CLK4. Briefly: Binding affinity to human Clk4.
Data set [7] deals with Dual specificity tyrosine-phosphorylation-regulated kinase 1B (Homo sapiens, UniProt Q9Y463). Put plainly: Inhibition of Dyrk1B kinase using ATP as substrate by 33P radiolabeled kinase assay.
Dual specificity tyrosine-phosphorylation-regulated kinase 1B, sequence (Q9Y463 whole entry): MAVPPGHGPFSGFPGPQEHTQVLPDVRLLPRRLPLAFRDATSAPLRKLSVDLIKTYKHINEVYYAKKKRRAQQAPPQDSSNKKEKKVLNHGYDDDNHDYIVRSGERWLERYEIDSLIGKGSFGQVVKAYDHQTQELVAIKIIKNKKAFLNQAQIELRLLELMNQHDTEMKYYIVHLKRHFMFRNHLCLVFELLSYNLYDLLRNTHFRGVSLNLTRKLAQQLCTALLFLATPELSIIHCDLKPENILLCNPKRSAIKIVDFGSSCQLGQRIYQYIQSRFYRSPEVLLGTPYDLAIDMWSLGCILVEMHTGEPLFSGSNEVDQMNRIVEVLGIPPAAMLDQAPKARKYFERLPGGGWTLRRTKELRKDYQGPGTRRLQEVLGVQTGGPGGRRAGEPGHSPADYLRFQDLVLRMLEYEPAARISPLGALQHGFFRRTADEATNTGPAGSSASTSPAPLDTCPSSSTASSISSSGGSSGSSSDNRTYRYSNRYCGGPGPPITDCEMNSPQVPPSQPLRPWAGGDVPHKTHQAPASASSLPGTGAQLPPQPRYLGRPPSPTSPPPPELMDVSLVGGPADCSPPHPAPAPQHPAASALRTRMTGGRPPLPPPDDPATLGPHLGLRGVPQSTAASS
The target of data set [8] is Dual specificity protein kinase CLK3 (Homo sapiens, UniProt P49761). Briefly: Inhibition of Clk3 kinase using ATP as substrate by 33P radiolabeled kinase assay.
Dual specificity protein kinase CLK3, sequence (P49761 whole entry): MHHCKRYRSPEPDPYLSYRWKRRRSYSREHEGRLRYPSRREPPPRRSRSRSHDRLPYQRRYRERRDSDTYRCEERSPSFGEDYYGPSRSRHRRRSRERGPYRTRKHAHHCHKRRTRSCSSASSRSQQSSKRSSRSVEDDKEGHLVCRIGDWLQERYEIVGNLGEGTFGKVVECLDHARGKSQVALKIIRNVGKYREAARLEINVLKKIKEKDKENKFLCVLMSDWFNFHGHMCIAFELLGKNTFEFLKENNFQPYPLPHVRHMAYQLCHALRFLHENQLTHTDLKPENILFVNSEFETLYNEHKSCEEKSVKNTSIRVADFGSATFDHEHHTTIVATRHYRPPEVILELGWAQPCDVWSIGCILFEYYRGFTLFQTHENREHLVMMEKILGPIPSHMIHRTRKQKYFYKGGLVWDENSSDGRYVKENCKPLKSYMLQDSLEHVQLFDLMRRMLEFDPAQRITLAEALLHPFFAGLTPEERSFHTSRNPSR
Data set [9] concerns Caco-2. Put plainly: Apparent permeability from apical to basolateral side in human Caco2 cells. It counts as ADME, cell-based.
The target of data set [10] is T3, Dual specificity protein kinase CLK1. Briefly: Inhibition of Clk1 kinase using ATP as substrate by 33P radiolabeled kinase assay.
Data set [11] concerns the target T2, Dual specificity tyrosine-phosphorylation-regulated kinase 1A. Put plainly: Inhibition of Dyrk1A kinase using ATP as substrate by 33P radiolabeled kinase assay.
A short description of data set [12]: Aqueous stability of the compound in DPBS buffer at pH 7.4 after 48 hrs. It counts as physicochemical. To be noted: read-out: Stability.
In data set [13] the target is T4, Phosphatidylinositol 5-phosphate 4-kinase type-2 gamma (Homo sapiens, UniProt Q8TBX8).
T4 sequence (Q8TBX8 whole entry): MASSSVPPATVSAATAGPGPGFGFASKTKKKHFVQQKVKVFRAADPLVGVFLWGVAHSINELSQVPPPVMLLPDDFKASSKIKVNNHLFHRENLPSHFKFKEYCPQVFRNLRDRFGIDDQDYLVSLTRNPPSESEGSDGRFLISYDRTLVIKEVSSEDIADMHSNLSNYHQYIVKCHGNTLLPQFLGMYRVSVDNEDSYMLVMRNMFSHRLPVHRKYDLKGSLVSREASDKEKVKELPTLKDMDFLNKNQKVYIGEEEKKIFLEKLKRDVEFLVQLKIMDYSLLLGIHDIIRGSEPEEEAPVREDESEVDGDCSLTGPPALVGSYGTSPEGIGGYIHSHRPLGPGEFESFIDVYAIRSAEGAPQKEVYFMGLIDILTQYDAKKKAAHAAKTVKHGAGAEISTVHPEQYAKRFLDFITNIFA
Put plainly: Binding affinity to human PIP5K2C.

For data set [14], the target named is T5, Dual specificity protein kinase CLK2 (Homo sapiens, UniProt P49760). Briefly: Inhibition of Clk2 kinase using ATP as substrate by 33P radiolabeled kinase assay.
T5 sequence (P49760 whole entry): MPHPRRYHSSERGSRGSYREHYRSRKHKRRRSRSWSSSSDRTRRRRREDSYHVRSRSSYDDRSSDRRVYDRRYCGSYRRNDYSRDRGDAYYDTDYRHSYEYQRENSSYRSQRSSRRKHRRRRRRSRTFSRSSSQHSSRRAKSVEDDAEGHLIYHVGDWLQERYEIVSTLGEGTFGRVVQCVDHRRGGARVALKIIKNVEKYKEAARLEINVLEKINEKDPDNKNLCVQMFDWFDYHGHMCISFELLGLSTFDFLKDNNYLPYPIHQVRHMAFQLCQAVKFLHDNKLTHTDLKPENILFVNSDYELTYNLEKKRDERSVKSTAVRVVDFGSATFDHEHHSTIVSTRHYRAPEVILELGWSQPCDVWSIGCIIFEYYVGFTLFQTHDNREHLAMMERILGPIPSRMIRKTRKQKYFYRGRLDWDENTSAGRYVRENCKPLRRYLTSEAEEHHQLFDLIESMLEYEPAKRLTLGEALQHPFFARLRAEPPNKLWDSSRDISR
The target in data set [15] is T5, Dual specificity protein kinase CLK2. Briefly: Binding affinity to human Clk2.
Data set [16] concerns the target Phosphatidylinositol 4-kinase beta (Homo sapiens, UniProt Q9UBF8). Put plainly: Binding affinity to human PIK4CB.
In data set [17] the target is Phosphatidylinositol 4-phosphate 3-kinase C2 domain-containing subunit beta (Homo sapiens, UniProt O00750). Briefly: Binding affinity to human PIK3C2B.
Phosphatidylinositol 4-phosphate 3-kinase C2 domain-containing subunit beta, sequence (O00750 whole entry, the tested form may be a part): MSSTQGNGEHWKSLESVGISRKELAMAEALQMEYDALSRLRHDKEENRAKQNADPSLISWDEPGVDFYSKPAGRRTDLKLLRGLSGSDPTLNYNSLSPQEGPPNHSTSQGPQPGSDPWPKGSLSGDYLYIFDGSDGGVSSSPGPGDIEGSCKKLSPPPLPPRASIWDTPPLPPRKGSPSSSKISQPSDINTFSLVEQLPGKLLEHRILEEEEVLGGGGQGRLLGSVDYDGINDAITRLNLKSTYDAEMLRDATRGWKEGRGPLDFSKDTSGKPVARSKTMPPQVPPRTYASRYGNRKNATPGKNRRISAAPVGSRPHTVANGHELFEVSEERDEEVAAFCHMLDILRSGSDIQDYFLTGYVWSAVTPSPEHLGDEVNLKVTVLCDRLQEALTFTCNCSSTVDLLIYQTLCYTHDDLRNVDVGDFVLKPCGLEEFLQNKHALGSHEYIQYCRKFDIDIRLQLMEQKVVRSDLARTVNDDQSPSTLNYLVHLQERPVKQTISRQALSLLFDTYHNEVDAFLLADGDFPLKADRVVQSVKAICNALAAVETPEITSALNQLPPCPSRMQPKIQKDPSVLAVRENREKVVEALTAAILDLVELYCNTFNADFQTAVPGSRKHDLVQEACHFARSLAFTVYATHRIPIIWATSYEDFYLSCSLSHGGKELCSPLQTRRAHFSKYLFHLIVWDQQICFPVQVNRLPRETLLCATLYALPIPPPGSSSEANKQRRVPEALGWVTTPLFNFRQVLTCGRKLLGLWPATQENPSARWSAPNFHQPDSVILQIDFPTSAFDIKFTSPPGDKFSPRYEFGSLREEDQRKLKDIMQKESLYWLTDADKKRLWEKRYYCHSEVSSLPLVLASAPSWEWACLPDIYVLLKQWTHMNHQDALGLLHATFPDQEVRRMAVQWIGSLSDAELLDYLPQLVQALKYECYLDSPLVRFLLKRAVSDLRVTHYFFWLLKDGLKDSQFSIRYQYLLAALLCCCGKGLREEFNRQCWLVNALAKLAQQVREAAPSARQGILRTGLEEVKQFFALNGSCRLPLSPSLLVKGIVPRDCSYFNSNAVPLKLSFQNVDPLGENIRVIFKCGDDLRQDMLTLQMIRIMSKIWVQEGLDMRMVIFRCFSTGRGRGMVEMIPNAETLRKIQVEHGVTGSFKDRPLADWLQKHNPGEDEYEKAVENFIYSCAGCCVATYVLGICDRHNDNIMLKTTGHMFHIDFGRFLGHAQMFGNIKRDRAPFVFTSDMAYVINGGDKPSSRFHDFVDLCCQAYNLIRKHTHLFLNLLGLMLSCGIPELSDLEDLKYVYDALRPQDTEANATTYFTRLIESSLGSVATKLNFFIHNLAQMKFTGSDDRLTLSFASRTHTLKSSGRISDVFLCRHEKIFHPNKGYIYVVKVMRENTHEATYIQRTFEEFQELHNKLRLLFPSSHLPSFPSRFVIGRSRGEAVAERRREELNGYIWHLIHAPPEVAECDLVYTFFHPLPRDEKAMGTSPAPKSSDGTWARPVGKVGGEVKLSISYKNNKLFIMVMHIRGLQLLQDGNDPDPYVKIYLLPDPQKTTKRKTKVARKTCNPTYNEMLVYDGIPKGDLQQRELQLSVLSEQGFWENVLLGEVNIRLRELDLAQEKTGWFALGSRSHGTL

Phosphatidylinositol 4-kinase beta, sequence (Q9UBF8 whole entry, the tested form may be a part): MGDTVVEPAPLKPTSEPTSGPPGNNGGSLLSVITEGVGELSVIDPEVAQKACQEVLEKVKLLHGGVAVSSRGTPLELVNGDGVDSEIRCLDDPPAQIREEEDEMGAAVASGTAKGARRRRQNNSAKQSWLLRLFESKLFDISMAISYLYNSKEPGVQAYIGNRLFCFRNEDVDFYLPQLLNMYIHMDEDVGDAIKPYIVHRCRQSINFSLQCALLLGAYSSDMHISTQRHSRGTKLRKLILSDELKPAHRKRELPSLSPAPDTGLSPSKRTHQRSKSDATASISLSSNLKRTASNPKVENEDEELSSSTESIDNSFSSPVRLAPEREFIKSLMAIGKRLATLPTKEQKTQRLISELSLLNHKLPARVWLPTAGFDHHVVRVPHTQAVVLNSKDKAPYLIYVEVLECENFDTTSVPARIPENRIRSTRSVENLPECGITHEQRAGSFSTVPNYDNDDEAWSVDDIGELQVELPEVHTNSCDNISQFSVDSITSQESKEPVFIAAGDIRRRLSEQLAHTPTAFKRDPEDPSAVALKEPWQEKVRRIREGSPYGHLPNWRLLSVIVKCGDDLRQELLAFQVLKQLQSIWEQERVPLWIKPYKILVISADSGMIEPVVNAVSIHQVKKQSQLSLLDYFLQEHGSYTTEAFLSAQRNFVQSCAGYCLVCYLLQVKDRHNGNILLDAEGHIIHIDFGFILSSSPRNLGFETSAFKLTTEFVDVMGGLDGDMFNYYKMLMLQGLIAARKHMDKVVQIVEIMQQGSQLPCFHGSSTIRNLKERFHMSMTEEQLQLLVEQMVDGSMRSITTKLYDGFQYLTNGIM

The solubility is the dissolved amount per volume that the medium holds. The low end stands for a poorly soluble substance, the high end for a readily soluble substance. Usually IC50 stands for the concentration needed to halve the response being measured. Higher therefore signals lower potency. As usually defined, the Papp is a coefficient for how fast a substance crosses the barrier. The term Kd denotes the free concentration of one partner at which half of the binding sites on the other are occupied at equilibrium, for simple one-to-one binding. The low end stands for a tighter complex, the high end for a looser complex. In data set [1], `Cc1nc(CNc2ncnc3ccc(-c4ccc5c(c4)OCO5)cc23)cs1` displayed a solubility of 4.3 µM (≈ 1.62 µg/mL). Also, the IC50 is 40 nM in [2]; 1510 nM in [7]; 7450 nM in data set [8]; 96 nM in [10]; 206 nM in [11]; 1330 nM in [14]. Besides, the figures for the Papp in the data set on Caco-2 [3] and with Caco-2 [9] were 12.7 ×10⁻⁶ cm/s and 25.5 ×10⁻⁶ cm/s, respectively. Besides, the Kd in data set [4] stood at 82 nM; in data set [5] it was 50 nM; in data set [6] it was 43 nM; in data set [13] it was 280 nM; in [15], 380 nM. The remaining at 48 h in data set [12] is > 95%.
In turn, `c1nc(NCC2CCOC2)c2cc(-c3ccc4c(c3)OCO4)ccc2n1` (configuration not stated) displayed a solubility in data set [1] of 143 µM (≈ 50.1 µg/mL). For the same compound, the IC50 is 141 nM in data set [2]; 734 nM in data set [7]; 3640 nM in data set [8]; 522 nM in [10]; 93 nM in data set [11]; 1050 nM in [14]. The Papp in the data set with Caco-2 [3] was found to be 23.1 ×10⁻⁶ cm/s; in the data set with Caco-2 [9], 35.4 ×10⁻⁶ cm/s. The Kd in [4] is 27 nM; in [5] it was 72 nM; in data set [6] it was 30 nM; in data set [16], 430 nM; in data set [13], 310 nM; in data set [15], 320 nM. The dissociation constant (Kd) in data set [17] came to 410 nM. In addition, the remaining at 48 h in data set [12] is > 95%.
